Entries after “also recorded” stand apart in the source; their conditions may differ.
Key:
Format in all cases: in vivo, human
[1] = test system: special operations veterans with combat and/or blast exposure; test: Self-reported alcohol consumption and intoxication; settings: one month following treatment
Protocol: Alcohol consumption in the enrolled subjects was also evaluated. At baseline, 11 of the 30 enrolled subjects reported drinking at least four days per week and 12 of the 30 enrolled subjects reported drinking at least four days per week over the last month. Some of the subjects reported drinking daily. One month following treatment, none (zero) of the enrolled subjects reported drinking more than three times per week. 28 of the 30 enrolled subjects reported drinking less than twice per week over the past month.
Intoxication by alcohol was also evaluated in the enrolled subjects. At baseline, 9 of the 30 enrolled subjects reported being intoxicated more than once over the last 30 days, with some subjects reporting being intoxicated for 25 of the last 30 days. One month following treatment, one participant reported four episodes of intoxication after reporting 23 episodes at baseline.

[2] = test system: special operations veterans with combat and/or blast exposure; test: Hamilton-Anxiety Rating Scale (HAM-A)
Text: The pre-specified primary outcome was change in the World Health Organization Disability Assessment Schedule 2.0 (WHODAS) (Gold L. H. et al., J. Am. Acad. Psychiatry Law 42, 9 (2014)) from baseline to post-treatment, with change from baseline to the one-month follow-up a secondary outcome. Additional pre-specified secondary outcomes included post-treatment changes on the Clinician Administered PTSD Scale (CAPS-5; Weathers, F. W. et al., Psychol. Assess., 30, 383-395 (2018)), Montgomery-Åsberg Depression Rating Scale (MADRS; Montgomery, S. A., Br. J. Psychiatry J. Ment. Sci., 134, 382-389 (1979)) and the Hamilton-Anxiety Rating Scale (HAM-A; Bruss, G. S., et al., Psychiatry Res., 53, 191-202 (1994)). […] An additional dose of magnesium was administered approximately 12 hours later. To assess the significance of post-treatment changes, linear mixed effects (LME) models were used for each outcome measure. False Discovery Rate (FDR; Benjamini, Y. et al., J. R. Stat. Soc. Ser. B Methodol., 57, 289-300 (1995)) was applied to correct for multiple comparisons.
To further assess changes in comorbid psychiatric symptoms identified by the models, mean percent reduction, response rate, and remission rate according to the CAPS-5, MADRS and HAM-A (Table 1) were calculated. Response on the CAPS-5, MADRS, and HAM-A was defined as a reduction of at least 10 points (Mitchell, J. M. et al., Nat. Med. 27, 1025-1033(2021)), 50% (Leucht, S. et al., J. Affect. Disord. 210, 287-293 (2017)), and 50% (McIntyre, A. et al., Depress. Anxiety 24, 487-494 (2007)), respectively; remission as loss of diagnosis and a total score below 12 (Mitchell, J. M. et al. supra), <8 (Leucht, S. et al. supra), and <8(McIntyre, A. et al., supra), respectively. One participant's baseline scores met criteria for remission in all three scales and so were excluded from the calculation of response and remission rates, leaving 29 participants in these specific analyses.
(§1) With subjects in the fasting state, an intravenous infusion of 1 gram of magnesium sulfate was administered 1-2 hours prior to treatment. […] Medical staff (MD, RN, or EMT) were onsite at a ratio of at least 1 staff per 2 patients throughout treatment for monitoring and management, but no specific coaching or psychological support was provided during treatment.
Clinician administered scales included CAPS-5 (Clinician-administered PTSD Scale for DSM-5), which is a gold standard assessment of PTSD symptom severity; MADRS (Montgomery-Asberg Depression Rating Scale), a measure for depressive symptom severity: and Hamilton-Anxiety Rating Scale (HAM-A) (Shear, M. K. et al., Depress. Anxiety 13, 166-178 (2001)) a measure for anxiety symptom severity: SCID-5 (Structured Clinical Interview for DSM-5) Overview for a historical and environmental context of symptom presentation: MINI DSM-5 (Mini International Neuropsychiatric Interview from DSM-5) for a structured psychodiagnostics assessment: BAT-L (Boston Assessment of TBI-Lifetime) for a lifetime history of TBI and blast exposure: and Ohio State University TBI Identification Method (Short Form) for a lifetime history of TBI. MADRS testing provides an indication of depressive symptoms, CAPS-5 provides an indication of PTSD and SIGH-A provides an indication of anxiety. Collectively these overlap to provide indication of mood, concentration, sleep and tension.
To assess anxiety symptoms, the Hamilton Anxiety Rating Scale was used. This scale includes 14-items assessing both psychic and physical symptoms of anxiety. Items are rated on a scale from 0 (no symptoms) to 4 (severe symptoms). Total score ranges were: no or minimal anxiety (≤7), mild (8-14), moderate (15-23), and severe anxiety symptoms (≥24) (Matza et al., Int. J. Methods Psychiatr. Res. 19, 223-232 (2010))).

[3] = test system: special operations veterans with combat and/or blast exposure; test: Safety monitoring during and after treatment (adverse events, QTc by ECG)
Protocol: as §1

[4] = 1-mo. post, only participants meeting relevant MINI diagnostic criteria
[5] = 1-mo. post, only participants with mild TBI
[6] = 1-wk. post, only participants meeting relevant MINI diagnostic criteria
[7] = 1-wk. post, only participants with mild TBI

CCC1CC2CC3c4[nH]c5ccc(OC)cc5c4CCN(C2)C13 (stereo not shown) [ibogaine, Ibogaine]
episodes of intoxication reported by one participant ([1]; 23 episodes at baseline): four
enrolled subjects reporting drinking more than three times per week ([1]; 30 subjects, at baseline 11 of 30 drank at least four days per week): zero
enrolled subjects reporting drinking less than twice per week over the past month ([1]; of the 30 enrolled subjects): 28
HAM-A % Reduction vs Baseline [2, 4]: 80% ± 23%
HAM-A Remission Rate [2, 4]: 71%
HAM-A Response Rate [2, 4]: 86%
HAM-A score ([2]; 1-mo. post, only participants meeting relevant MINI diagnostic criteria at baseline (N 14), baseline 23.8 ± 7.6): 5.1
HAM-A % Reduction vs Baseline [2, 5]: 82% ± 21%
HAM-A Remission Rate [2, 5]: 85%
HAM-A Response Rate [2, 5]: 93%
HAM-A score ([2]; 1-mo. post, only participants with mild TBI (N 28), baseline 20.7 ± 8.6): 3.7
HAM-A score ([2]; 1-wk post, only participants meeting relevant MINI diagnostic criteria at baseline (N 14), baseline 23.8 ± 7.6): 4.2
HAM-A % Reduction vs Baseline [2, 6]: 82% ± 14%
HAM-A Remission Rate [2, 6]: 86%
HAM-A Response Rate [2, 6]: 100%
HAM-A % Reduction vs Baseline [2, 7]: 82% ± 19%
HAM-A Remission Rate [2, 7]: 89%
HAM-A Response Rate [2, 7]: 96%
HAM-A score ([2]; 1-wk. post, only participants with mild TBI (N 28), baseline 20.7 ± 8.6): 3.3
HAM-A, effect size D ([2]; baseline vs 1-mo. post, only participants meeting relevant MINI diagnostic criteria (N 14)): 2.33
HAM-A, effect size D ([2]; baseline vs 1-mo. post, only participants with mild TBI (N 28)): 2.07
HAM-A, effect size D ([2]; baseline vs 1-wk post, only participants with mild TBI (N 28)): 2.02
HAM-A, effect size D ([2]; baseline vs 1-wk. post, only participants meeting relevant MINI diagnostic criteria (N 14)): 2.52
HAM-A, effect size D ([2]; baseline vs one-month post, all participants): 2.13
HAM-A, effect size D ([2]; baseline vs one-week post, all participants): 2.06
HAM-A anxiety symptom severity score ([2]; four days after (immediate post) treatment, baseline about 21 (FIG. 5A)): about 7
HAM-A effect size ([2]; four days after treatment relative to baseline (FIG. 5A)): 1.81
subjects scoring below the mild anxiety range (HAM-A) ([2]; one month post treatment (FIG. 5B)): 90%
HAM-A effect size ([2]; one month post treatment relative to baseline (FIG. 5A)): 1.82
HAM-A Remission Rate ([2]; one-month post, 29 participants, remission = score <8): 83%
HAM-A Response Rate ([2]; one-month post, 29 participants, response = reduction of at least 50%): 93%
HAM-A score ([2]; one-month post, all participants, baseline 20.8 ± 8.5, mean ± SD): 3.9
HAM-A % Reduction vs Baseline ([2]; one-month post, all participants, mean ± SD): 81% ± 21%
HAM-A Remission Rate ([2]; one-week post, 29 participants, remission = score <8): 86%
HAM-A Response Rate ([2]; one-week post, 29 participants, response = reduction of at least 50%): 97%
HAM-A score ([2]; one-week post, all participants, baseline 20.8 ± 8.5, mean ± SD): 3.6
HAM-A % Reduction vs Baseline ([2]; one-week post, all participants, mean ± SD): 81% ± 19%
participants with transient cerebellar signs such as mild ataxia and intention tremor ([3]; 30 participants): All participants
unexpected or serious treatment-emergent side effects / adverse events ([3]; 30 participants, oral ibogaine with IV magnesium sulfate): no unexpected or serious treatment-emergent side effects; also recorded: no unexpected or serious adverse events
prolongation of QTc ([3]; continuous 5-lead ECG for 12-16 hours following administration): no instances of a concerning prolongation of QTc
time to resolution of transient cerebellar signs ([3]; human, in vivo, oral): ≤ 24 h
participants treated for insomnia ([3]; while experiencing the oneirogenic effects, 1 participant): 3%
participants treated for hypertension ([3]; while experiencing the oneirogenic effects, 2 participants): 7%
participants treated for anxiety ([3]; while experiencing the oneirogenic effects, 3 participants): 10%
participants treated for nausea ([3]; while experiencing the oneirogenic effects, 7 participants): 23%
participants treated for headache ([3]; while experiencing the oneirogenic effects, 12 participants): 40%

— patent publication US20240415845A1, “Compositions of Iboga Alkaloids and Methods of Treatment” (priority 2022, published 2024)
